# Assay results reported in ChEMBL document CHEMBL1130083, “Discovery of prototype peptidomimetic agonists at the human melanocortin receptors MC1R and MC4R” (J Med Chem, 1997).
# pEC50, pIC50: −log10 of the molar value.
# Legend:
# MCR [1] = test: Effective concentration was measured against frog skin MCR cells at 10 e-4 10 e-12 M Concentration.; type: functional, cell-based; details: Anura
# Melanocortin receptor 5 = Melanocortin receptor 5 (Homo sapiens, UniProt P33032); test: Displacement of [125I]NDP-MSH from Melanocortin 5 receptor at 10 uM
# Melanocortin receptor 3 = Melanocortin receptor 3 (Homo sapiens, UniProt P41968); test: Displacement of [125I]NDP-MSH from Melanocortin 3 receptor at 10 uM
# [2] = target: T1, Melanocyte-stimulating hormone receptor (Homo sapiens, UniProt Q01726); test: effective concentration of peptide at 50% maximal cAMP accumulation on Melanocortin 1 receptor; type: functional
# [3] = target: T1, Melanocyte-stimulating hormone receptor; test: Displacement of [125I]NDP-MSH from Melanocortin 1 receptor at 10 uM
# Melanocortin receptor 4 = Melanocortin receptor 4 (Homo sapiens, UniProt P32245); test: Displacement of [125I]NDP-MSH from Melanocortin 4 receptor at 10 uM
# MCR [4] = test: Effective concentration was measured against frog skin(MCR) cells at 10 e-4 10 e-12 M Concentration.; type: functional, cell-based; details: Anura
# Melanocortin receptor 4, sequence (P32245 whole entry): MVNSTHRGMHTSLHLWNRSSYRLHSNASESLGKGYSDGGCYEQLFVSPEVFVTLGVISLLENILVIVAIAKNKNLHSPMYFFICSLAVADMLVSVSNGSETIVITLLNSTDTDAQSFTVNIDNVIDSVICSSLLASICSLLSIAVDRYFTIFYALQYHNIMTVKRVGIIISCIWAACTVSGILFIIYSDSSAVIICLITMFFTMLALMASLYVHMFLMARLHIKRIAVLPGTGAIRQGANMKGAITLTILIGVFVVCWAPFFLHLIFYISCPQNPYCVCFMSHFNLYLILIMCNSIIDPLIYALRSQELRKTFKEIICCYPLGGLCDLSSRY
# Melanocortin receptor 3, sequence (P41968 whole entry): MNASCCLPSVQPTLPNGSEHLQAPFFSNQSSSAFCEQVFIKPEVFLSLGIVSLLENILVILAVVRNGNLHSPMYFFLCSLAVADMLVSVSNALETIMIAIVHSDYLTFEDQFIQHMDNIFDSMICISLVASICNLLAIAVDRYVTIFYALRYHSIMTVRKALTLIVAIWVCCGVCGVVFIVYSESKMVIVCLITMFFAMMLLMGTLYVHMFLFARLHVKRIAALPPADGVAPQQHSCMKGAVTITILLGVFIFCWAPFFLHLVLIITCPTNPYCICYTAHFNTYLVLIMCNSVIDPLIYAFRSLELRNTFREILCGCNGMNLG
# Melanocortin receptor 5, sequence (P33032 whole entry): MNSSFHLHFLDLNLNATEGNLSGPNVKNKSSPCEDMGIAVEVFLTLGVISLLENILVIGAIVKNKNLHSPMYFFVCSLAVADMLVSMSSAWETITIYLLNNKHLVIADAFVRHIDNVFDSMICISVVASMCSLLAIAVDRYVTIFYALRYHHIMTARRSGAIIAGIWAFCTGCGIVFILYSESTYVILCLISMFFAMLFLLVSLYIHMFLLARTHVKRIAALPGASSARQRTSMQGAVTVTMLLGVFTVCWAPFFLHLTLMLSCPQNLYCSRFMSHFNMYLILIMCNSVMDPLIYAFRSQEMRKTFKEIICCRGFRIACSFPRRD
# T1 sequence (Q01726 whole entry): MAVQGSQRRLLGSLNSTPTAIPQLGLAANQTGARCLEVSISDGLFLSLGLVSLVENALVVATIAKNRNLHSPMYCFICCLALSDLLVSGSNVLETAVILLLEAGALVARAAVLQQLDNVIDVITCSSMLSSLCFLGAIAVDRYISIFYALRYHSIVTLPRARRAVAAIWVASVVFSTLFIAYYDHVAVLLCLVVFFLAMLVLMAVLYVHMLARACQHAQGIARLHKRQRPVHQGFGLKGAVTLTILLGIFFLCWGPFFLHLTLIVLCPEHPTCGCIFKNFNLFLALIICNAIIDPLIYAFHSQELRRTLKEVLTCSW
pEC50 (MCR [1]),pIC50 (Melanocortin receptor 5),pIC50 (Melanocortin receptor 3),pEC50 [2],pIC50 [3],pIC50 (Melanocortin receptor 4),pEC50 (MCR [4]),Structure (SMILES)
6.70,< 5.00,< 5.00,6.64,6.21,–,–,CC(=O)N[C@@H](Cc1cnc[nH]1)C(=O)N[C@H](Cc1ccccc1)C(=O)N[C@@H](CCCNC(=N)N)C(=O)N[C@@H](Cc1c[nH]c2ccccc12)C(N)=O
< 4.00,< 5.00,< 5.00,–,< 5.00,< 5.00,–,CC(=O)N[C@@H](Cc1ccccc1)C(=O)N[C@H](CCCN=C(N)N)C(=O)N[C@H](Cc1c[nH]c2ccccc12)C(N)=O
5.70,< 5.00,< 5.00,5.85,5.20,–,–,CC(=O)N[C@@H](Cc1c[nH]cn1)C(=O)N[C@@H](Cc1ccccc1)C(=O)N[C@@H](CCCN=C(N)N)C(=O)N[C@H](Cc1c[nH]c2ccccc12)C(N)=O
–,< 5.00,< 5.00,–,< 5.00,5.68,4.52,CC(=O)N[C@H](Cc1ccccc1)C(=O)N[C@@H](CCCN=C(N)N)C(=O)N[C@@H](Cc1c[nH]c2ccccc12)C(N)=O
< 4.00,< 5.00,< 5.00,–,< 5.00,< 5.00,–,CC(=O)N[C@@H](Cc1ccccc1)C(=O)N[C@@H](CCCNC(=N)N)C(=O)N[C@H](Cc1c[nH]c2ccccc12)C(N)=O
5.72,< 5.00,< 5.00,–,< 5.00,–,–,CC(=O)N[C@@H](Cc1c[nH]cn1)C(=O)N[C@H](Cc1ccccc1)C(=O)N[C@H](CCCN=C(N)N)C(=O)N[C@H](Cc1c[nH]c2ccccc12)C(N)=O
5.26,< 5.00,< 5.00,–,< 5.00,< 5.00,–,CC(=O)N[C@H](Cc1ccccc1)C(=O)N[C@H](CCCN=C(N)N)C(=O)N[C@@H](Cc1c[nH]c2ccccc12)C(N)=O
–,< 5.00,< 5.00,–,< 5.00,5.04,5.82,CC(=O)N[C@H](Cc1ccccc1)C(=O)N[C@@H](CCCNC(=N)N)C(=O)N[C@H](Cc1c[nH]c2ccccc12)C(N)=O
< 4.00,< 5.00,< 5.00,–,< 5.00,< 5.00,–,CC(=O)N[C@H](Cc1ccccc1)C(=O)N[C@H](CCCNC(=N)N)C(=O)N[C@H](Cc1c[nH]c2ccccc12)C(N)=O
5.38,< 5.00,< 5.00,–,< 5.00,< 5.00,–,CC(=O)NCC(=O)N[C@H](Cc1ccccc1)C(=O)N[C@@H](CCCN=C(N)N)C(=O)N[C@H](Cc1c[nH]c2ccccc12)C(N)=O
5.00,< 5.00,< 5.00,–,< 5.00,–,–,CC(=O)N[C@@H](Cc1c[nH]cn1)C(=O)N[C@H](Cc1ccccc1)C(=O)N[C@H](CCCN=C(N)N)C(=O)N[C@@H](Cc1c[nH]c2ccccc12)C(N)=O
